The values that follow come from US11541050B2, “Pyrimidine derivatives for the treatment of viral infections” (JANSSEN SCIENCES IRELAND UC, priority 2011, dated 2023).

Molecules are shown by their SMILES.

Assay type in all cases: cell-based
Set-up in all cases: unit not given here

The target in assay [1] is T1, human TLR8 (wild type sequence) (Homo sapiens, UniProt Q9NR97).
T1 construct: expressed in transfected cells; host or cells: HEK293
T1 sequence (Q9NR97 27-1041): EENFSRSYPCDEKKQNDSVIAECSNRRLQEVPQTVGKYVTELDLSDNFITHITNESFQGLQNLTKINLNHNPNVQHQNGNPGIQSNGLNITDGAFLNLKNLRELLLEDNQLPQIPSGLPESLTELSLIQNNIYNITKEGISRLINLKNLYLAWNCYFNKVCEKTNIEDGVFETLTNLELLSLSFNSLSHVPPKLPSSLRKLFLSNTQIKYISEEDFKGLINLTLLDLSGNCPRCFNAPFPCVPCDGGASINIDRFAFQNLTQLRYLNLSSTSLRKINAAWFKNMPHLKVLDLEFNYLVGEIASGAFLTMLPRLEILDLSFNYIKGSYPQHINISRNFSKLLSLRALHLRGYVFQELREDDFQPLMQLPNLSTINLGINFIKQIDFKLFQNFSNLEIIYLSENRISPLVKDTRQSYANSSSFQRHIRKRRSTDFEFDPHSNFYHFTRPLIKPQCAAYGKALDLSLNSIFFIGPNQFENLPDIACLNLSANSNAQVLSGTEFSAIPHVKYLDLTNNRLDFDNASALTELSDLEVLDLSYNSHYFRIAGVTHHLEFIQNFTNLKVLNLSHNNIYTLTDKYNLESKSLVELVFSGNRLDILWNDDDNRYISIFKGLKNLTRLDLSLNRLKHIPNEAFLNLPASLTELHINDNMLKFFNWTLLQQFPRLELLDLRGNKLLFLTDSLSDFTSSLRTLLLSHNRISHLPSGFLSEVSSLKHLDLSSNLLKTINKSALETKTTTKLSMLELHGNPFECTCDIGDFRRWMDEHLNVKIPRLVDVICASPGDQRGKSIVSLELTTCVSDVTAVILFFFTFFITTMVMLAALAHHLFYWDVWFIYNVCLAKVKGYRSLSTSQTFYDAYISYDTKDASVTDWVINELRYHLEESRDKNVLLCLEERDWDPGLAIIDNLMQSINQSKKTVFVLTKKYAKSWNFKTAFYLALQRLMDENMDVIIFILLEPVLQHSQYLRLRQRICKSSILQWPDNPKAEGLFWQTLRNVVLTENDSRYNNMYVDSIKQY
Briefly: TLR8 cellular NFκB-luc reporter assay, wild type TLR8. The following applies: lowest effective concentration. Summed up: (§1)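 NFκB-driven luciferase in HEK293 transiently expressing TLR7 or TLR8, wild type or mutant lacking part of the second LRR; 6 h compound exposure; lowest effective concentration reported.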
For orientation: In a reporter assay the amount or activity of a reporter protein is the signal.

The subject of assay [2] is human TLR7 mutant sequence comprising a deletion in the second leucine-rich repeat. The assay can be described thus: TLR7 cellular NFκB-luc reporter assay, mutant TLR7 with deletion in the second leucine-rich repeat. The following applies: lowest effective concentration. The method, then: (§2) The ability of compounds to activate human TLR7 and/or TLR8 was assessed in a cellular reporter assay using HEK293 cells transiently transfected with a TLR7 or TLR8 expression vector and NFκB-luc reporter construct. In one instance the TLR expression construct expresses the respective wild type sequence or a mutant sequence comprising a deletion in the second leucine-rich repeat of the TLR.
(§3) Briefly, HEK293 cells were grown in culture medium (DMEM supplemented with 10% FCS and 2 mM Glutamine). For transfection of cells in 10 cm dishes, cells were detached with Trypsin-EDTA, transfected with a mix of CMV-TLR7 or TLR8 plasmid (750 ng), NFκB-luc plasmid (375 ng) and a transfection reagent and incubated for 48 hours at 37° C. in a humidified 5% CO2 atmosphere. […] Thirty microliters of cells were then dispensed into each well in 384-well plates, where 10 μL of compound in 4% DMSO was already present. Following 6 hours incubation at 37° C., 5% CO2, the luciferase activity was determined by adding 15 μl of Steady Lite Plus substrate (Perkin Elmer) to each well and readout performed on a ViewLux ultraHTS microplate imager (Perkin Elmer). Dose response curves were generated from measurements performed in quadruplicates.

Assay [3] has as its target T2, human TLR7 (wild type sequence) (Homo sapiens, UniProt Q9NYK1).
T2 construct: expressed in transfected cells; host or cells: HEK293
T2 sequence (Q9NYK1 27-1049): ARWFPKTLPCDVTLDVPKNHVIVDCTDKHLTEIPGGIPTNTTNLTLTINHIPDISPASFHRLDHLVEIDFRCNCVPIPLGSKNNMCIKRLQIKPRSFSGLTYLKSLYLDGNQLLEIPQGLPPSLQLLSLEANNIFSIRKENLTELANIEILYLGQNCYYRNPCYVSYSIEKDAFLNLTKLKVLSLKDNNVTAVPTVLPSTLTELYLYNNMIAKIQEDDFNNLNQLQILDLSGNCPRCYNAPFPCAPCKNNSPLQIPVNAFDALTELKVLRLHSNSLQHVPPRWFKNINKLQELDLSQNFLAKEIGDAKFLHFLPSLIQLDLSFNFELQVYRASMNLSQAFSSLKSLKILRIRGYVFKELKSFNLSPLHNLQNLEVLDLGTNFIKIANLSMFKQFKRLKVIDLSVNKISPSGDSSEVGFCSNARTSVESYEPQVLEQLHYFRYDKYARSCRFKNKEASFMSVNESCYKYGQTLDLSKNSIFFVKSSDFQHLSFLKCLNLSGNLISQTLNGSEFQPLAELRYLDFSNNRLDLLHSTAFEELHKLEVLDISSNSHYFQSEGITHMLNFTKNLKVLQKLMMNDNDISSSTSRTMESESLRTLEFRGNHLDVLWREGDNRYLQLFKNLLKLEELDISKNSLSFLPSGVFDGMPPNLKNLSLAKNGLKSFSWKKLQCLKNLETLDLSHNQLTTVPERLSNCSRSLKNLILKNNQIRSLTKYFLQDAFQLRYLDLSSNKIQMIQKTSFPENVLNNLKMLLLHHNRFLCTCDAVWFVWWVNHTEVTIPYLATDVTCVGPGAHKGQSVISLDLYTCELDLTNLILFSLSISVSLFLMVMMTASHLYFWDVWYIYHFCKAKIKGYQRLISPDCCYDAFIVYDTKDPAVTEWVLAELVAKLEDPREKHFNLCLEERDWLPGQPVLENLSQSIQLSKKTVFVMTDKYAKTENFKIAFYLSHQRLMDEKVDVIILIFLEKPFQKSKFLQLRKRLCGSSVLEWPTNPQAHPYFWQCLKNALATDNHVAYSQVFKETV
The assay can be described thus: TLR7 cellular NFκB-luc reporter assay, wild type TLR7. The conditions noted are these: lowest effective concentration, wild type TLR7. Summed up:
as §1

Assay [4] relates to human TLR8 mutant sequence comprising a deletion in the second leucine-rich repeat. The assay can be described thus: TLR8 cellular NFκB-luc reporter assay, mutant TLR8 with deletion in the second leucine-rich repeat. The conditions noted are these: lowest effective concentration. Here is the method:
as §2, §3

Take `CCC[C@@H](CO)Nc1nc(N)ncc1OCCOC` [Compound 196]: in assay [1], the TLR8-wt_LEC is 0.687. This molecule yielded a TLR7-dIRR2_LEC in assay [2] of 0.469. This molecule displayed a TLR7-wt_LEC in assay [3] of 1.900.

As to `CCCC[C@@H](CO)Nc1nc(N)ncc1OCCOC` [Compound 197], in assay [1], the TLR8-wt_LEC came out at 0.767. The same molecule gave a TLR7-dIRR2_LEC in assay [2] of 0.624. This molecule displayed a TLR7-wt_LEC in assay [3] of 2.650.

Take `CCCC[C@@H](CO)Nc1nc(N)ncc1OCc1ccc2ccccc2n1` [Compound 198]: the TLR8-wt_LEC in assay [1] worked out at 0.089. Further, the TLR7-dIRR2_LEC in assay [2] was 0.511. In addition, the TLR7-wt_LEC in assay [3] stood at 0.076.

As to `CCC[C@@H](CO)Nc1nc(N)ncc1OCCCc1ccc(OC)cc1` [Compound 200], in assay [1], the TLR8-wt_LEC turned out to be 0.200. Also, the TLR7-dIRR2_LEC in assay [2] was determined as 0.181. This molecule had a TLR7-wt_LEC in assay [3] of 0.253.

In assay [1], `CCCC[C@@H](CO)Nc1nc(N)ncc1OCCCc1ccc(OC)cc1` [Compound 201] registered a TLR8-wt_LEC of 0.758. This molecule yielded a TLR7-dIRR2_LEC in assay [2] of 0.647. In assay [3], this molecule gave a TLR7-wt_LEC of 0.566.

In turn, `CCC[C@@H](CO)Nc1nc(N)ncc1OCc1cccc(C)n1` [Compound 202] yielded a TLR8-wt_LEC in assay [1] of 0.049. The molecule also gave a TLR7-dIRR2_LEC in assay [2] of 0.089. The molecule also yielded a TLR7-wt_LEC in assay [3] of 0.164.

Consider `CCCC[C@@H](CO)Nc1nc(N)ncc1OCc1cccc(C)n1` [Compound 203], for which the TLR8-wt_LEC in assay [1] worked out at 0.054. The same molecule showed a TLR7-dIRR2_LEC in assay [2] of 0.160. The molecule further displayed a TLR7-wt_LEC in assay [3] of 0.124.

As for `CCC[C@@H](CO)Nc1nc(N)ncc1OCCCc1ccc2c(c1)OCO2` [Compound 204], the TLR8-wt_LEC in assay [1] turned out to be 0.493. For the same molecule, the TLR7-dIRR2_LEC in assay [2] worked out at 0.791. In assay [3], this molecule had a TLR7-wt_LEC of 0.791.

In assay [1], `CCC[C@@H](CCO)Nc1nc(N)ncc1OCc1cn2ccccc2n1` [Compound 205] showed a TLR8-wt_LEC of 0.047. In assay [2], this molecule showed a TLR7-dIRR2_LEC of 1.110. In assay [3], this molecule had a TLR7-wt_LEC of 0.369.

As to `CCCCNc1nc(N)ncc1OCC1(C)COC1` [Compound 206], the TLR8-wt_LEC in assay [1] was greater than 23.81. The TLR7-dIRR2_LEC in assay [2] is 9.450. This molecule had a TLR7-wt_LEC in assay [3] greater than 25.

In assay [1], `CCCC[C@@H](CCO)Nc1nc(N)ncc1OCc1cn2ccccc2n1` [Compound 207] displayed a TLR8-wt_LEC of 0.063. The molecule also registered a TLR7-dIRR2_LEC in assay [2] of 1.450. The same molecule yielded a TLR7-wt_LEC in assay [3] of 0.177.

For the molecule `CCCC[C@@H](CCO)Nc1nc(N)ncc1OCc1nccc2ccccc12` [Compound 208], the TLR7-dIRR2_LEC in assay [2] is 0.093. The same molecule came in with a TLR7-wt_LEC in assay [3] of 0.001.

For the molecule `CCCCNc1nc(N)ncc1OCc1cn2ccccc2n1` [Compound 209], the TLR8-wt_LEC in assay [1] is recorded as 0.076. This molecule also showed a TLR7-dIRR2_LEC in assay [2] of 0.667. This molecule displayed a TLR7-wt_LEC in assay [3] of 0.074.

Regarding `CCCCNc1nc(N)ncc1OCc1ccc(C#N)cc1` [Compound 210], the TLR8-wt_LEC in assay [1] was found to be 0.237. The molecule also displayed a TLR7-dIRR2_LEC in assay [2] of 0.896. The molecule also displayed a TLR7-wt_LEC in assay [3] of 0.686.

`CCCCNc1nc(N)ncc1OCc1cn2ccncc2n1` [Compound 211]: the TLR8-wt_LEC in assay [1] is reported as 0.097. In assay [2], this molecule showed a TLR7-dIRR2_LEC of 1.040. The molecule further gave a TLR7-wt_LEC in assay [3] of 0.208.

The molecule `CCC[C@H](C)Nc1nc(N)ncc1OCc1nccc2ccccc12` [Compound 212] registered a TLR8-wt_LEC in assay [1] of 0.005. The same molecule yielded a TLR7-dIRR2_LEC in assay [2] of 0.148. Moreover, in assay [3], the TLR7-wt_LEC amounted to 0.007.

For `CCCCNc1nc(N)ncc1OCc1ncccc1F` [Compound 213], in assay [4], the TLR8-dIRR2_LEC was 0.032. This molecule gave a TLR7-dIRR2_LEC in assay [2] of 0.207. The molecule also gave a TLR7-wt_LEC in assay [3] of 0.225.

For the molecule `CCC[C@@H](CO)Nc1nc(N)ncc1OCc1nccc(OC)c1OC` [Compound 214], the TLR8-dIRR2_LEC in assay [4] is 0.027. In assay [2], this molecule registered a TLR7-dIRR2_LEC of 0.593. In assay [3], this molecule returned a TLR7-wt_LEC of 0.134.

For the molecule `C=CC[C@H](CCCC)Nc1nc(N)ncc1OC` [Compound 292], in assay [2], the TLR7-dIRR2_LEC is 3.082. This molecule also had a TLR7-wt_LEC in assay [3] of 0.913.
